Test results from patent US8293891B2, “4 (pyrrolopyridinyl)pyrimidin-2-ylamine derivatives” (Merck Patent Gesellschaft mit Beschrankter Haftung, priority 2007, dated 2012).

How the values were obtained:
Type in all cases: cell-based
[1] = tested on: A2780 (ovary); assay: Inhibition of the proliferation/vitality of tumour cells (Alamar Blue), A2780; conditions: Homo sapiens, 96 h, 4 days cultivation
Procedure: (§1) The cells are sown in a suitable cell density in microtitre plates (96-well format) and the test substances are added in the form of a concentration series. After four further days of cultivation in serum-containing medium, the tumour cell proliferation/tumour cell vitality can be determined by means of an Alamar Blue test system.
The cells are cultivated in medium. At intervals of several days, the cells are detached from the culture dishes with the aid of trypsin solution and sown in suitable dilution in fresh medium. The cells are cultivated at 37° Celsius and 10% CO2.
A defined number of cells (for example 2000 cells) per culture/well in a volume of 180 μl of culture medium are sown in microtitre plates (96 well cell-culture plates) using a multichannel pipette. The cells are subsequently cultivated in a CO2 incubator (37° C. and 10% CO2).
The test substances are dissolved, for example, in DMSO and subsequently employed in corresponding concentration (if desired in a dilution series) in the cell culture medium. The dilution steps can be adapted depending on the efficiency of the active ingredients and the desired spread of the concentrations. Cell culture medium is added to the test substances in corresponding concentrations. The addition of the test substances to the cells can take place on the same day as the sowing of the cells. To this end, in each case 20 μl of substance solution from the predilution plate are added to the cultures/wells. The cells are cultivated for a further 4 days at 37° Celsius and 10% CO2.
In each case, 20 μl of Alamar Blue reagent are added per well, and the microtitre plates are incubated, for example, for a further seven hours in a CO2 incubator (at 37° C. and 10% CO2). The plates are measured in a reader with a fluorescence filter at a wavelength of 540 nm. The plates can be shaken gently immediately before the measurement.
(§2) The absorbance value of the medium control (no cells and test substances used) is subtracted from all other absorbance values. The controls (cells without test substance) are set equal to 100 per cent, and all other absorbance values are set in relation thereto (for example in % of control):
(§3) IC50 values (50% inhibition) are determined with the aid of statistics programs, such as, for example, RS1.

[2] = tested on: Colo205 (intestine); assay: Inhibition of the proliferation/vitality of tumour cells (Alamar Blue), Colo205; conditions: Homo sapiens, COLO 205, 96 h, 4 days cultivation
Procedure: as §1
(§4) The cells are cultivated in medium. At intervals of several days, the cells are detached from the culture dishes with the aid of trypsin solution and sown in suitable dilution in fresh medium. The cells are cultivated at 37° Celsius and 10% CO2. […]
(§5) In each case, 20 μl of Alamar Blue reagent are added per well, and the microtitre plates are incubated, for example, for a further seven hours in a CO2 incubator (at 37° C. and 10% CO2). The plates are measured in a reader with a fluorescence filter at a wavelength of 540 nm. […]
as §2, §3

[3] = tested on: PC3 (prostate); assay: Inhibition of the proliferation/vitality of tumour cells (Alamar Blue), PC3; conditions: Prostate cell, 96 h, 4 days cultivation
Procedure: as §1, §4, §5, §2, §3

[4] = tested on: MCF7 (breast); assay: Inhibition of the proliferation/vitality of tumour cells (Alamar Blue), MCF7; conditions: Homo sapiens, 96 h, 4 days cultivation
Procedure: as §1, §4, §5, §2, §3

| IC50 [1] | IC50 [2] | IC50 [3] | IC50 [4] | SMILES |
| --- | --- | --- | --- | --- |
| 10 to 1000 nM |  |  |  | Fc1cccc(Nc2nccc(-c3c[nH]c4ccncc34)n2)c1 [Compound A7] |
| 1000 to 10000 nM |  |  |  | Cc1ccccc1Nc1nccc(-c2c[nH]c3ccncc23)n1 [Compound A6, [4-(1H-pyrrolo-[3,2-c]pyridin-3-yl)pyrimidin-2-yl]-o-tolyl-amine] |
| 1000 to 10000 nM |  |  |  | COc1ccc(Nc2nccc(-c3c[nH]c4ccncc34)n2)cc1 [Compound A8] |
| 10 to 1000 nM | 10 to 1000 nM | 10 to 1000 nM | 10 to 1000 nM | c1ccc(Nc2nccc(-c3c[nH]c4ccncc34)n2)cc1 [Compound A1, phenyl[4-(1H-pyrrolo[3,2-c]pyridin-3-yl)pyrimidin-2-yl]-amine] |
